Test results reported in patent US20100248255A1, “NOVEL PEPTIDES” (KYOWA HAKKO KOGYO CO., LTD, priority 2005, published 2010).
“Also recorded” adds a separate entry of the source. No end group written: not given here.

How the values were obtained:
uterus = assay: Aequorin luminescence, uterus of apoaequorin-expressing mice; type: cell-based, mouse; settings: organ pieces, peptide final concentrations of 1 μmol/L and of 5 μmol/L
From the text: (§1) Whether Peptides 1 to 5, 9 and 10 synthesized in Example 2 have the activity of increasing intracellular calcium ion concentration was investigated using the organs of transgenic mice introduced with the apoaequorin gene and systemically expressing apoaequorin (hereinafter referred to as apoaequorin-expressing mice). In apoaequorin-expressing mouse cells, light is emitted when apoaequorin binds to a calcium ion in the presence of the luminescent substrate coelenterazine and thus the intracellular calcium ion concentration can be monitored. Patent Document (WO02/010371) discloses the method for producing apoaequorin-expressing mice, method for evaluating biologically active substances that use biological samples derived from the mice, and experimental results of evaluating biologically active peptides using the mouse organs as shown below. […] Therefore, apoaequorin-expressing mice can be used in the evaluation of the physiological activities of novel peptides.
(§2) Apoaequorin-expressing mice were produced according to the method disclosed in Reference Example 4 of Patent Document (WO02/010371). The apoaequorin-expressing mice were sacrificed, individual organs including thymus, spleen, bone, blood vessel, heart, kidney, adrenal gland, pancreas, pituitary gland, and uterus, were removed; and each of the organs was cut into small cubes of approximately 1 to 2 mm^3. Next, in 5-mL tubes (Rohren-Tubes; manufactured by Sarstedt, No. 55.476), three portions of each of the prepared organs were added to 50 μL of a 10 μmol/L solution of coelenterazine (manufactured by Molecular Probes) dissolved in RPMI 1640 medium, and these were cultured at 37° C. for three hours. After culturing, RPMI 1640 medium was added, and then Peptides 1 to 5, 9 and 10 dissolved in RPMI 1640 medium were added 25 seconds after the addition of RPMI 1640 until each peptide had final concentrations of 1 μmol/L and of 5 μmol/L, and the relative luminescence levels were measured every second immediately after the addition of RPMI 1640 medium by using a luminometer (AutoLumat LB953, manufactured by Berthold).

spleen = assay: Aequorin luminescence, spleen of apoaequorin-expressing mice; type: cell-based, mouse; settings: organ pieces, peptide final concentrations of 1 μmol/L and of 5 μmol/L
From the text: as §1, §2

[1] = system: antiserum (rabbit, Peptide 7-KLH conjugate as antigen); assay: Binding specificity of antiserum by competitive RIA with [125I]-labeled Peptide 1; settings: for inhibition of antiserum binding to [125I]-labeled Peptide 1: VGF-derived peptides, sequentially diluted
Procedure: As controls, reactions that use RIA buffer instead of the antiserum to measure non-specific binding, and reactions […] that use RIA buffer instead of VGF-derived peptide solutions to measure the maximum binding level were carried out. Reactions for non-specific binding were performed in quadruplicates, and the other reactions were performed in duplicates, and for each of the reactants, the immune complex was precipitated as in the above-mentioned antibody titer measurements, and its radioactivity (cpm) was measured. The average radioactivity of non-specific binding reaction is defined as non-specific binding level N, the radioactivity value for each VGF-derived peptide addition reaction is defined as Y, and the radioactivity value of maximum binding reaction is defined as Z. The percentage ratio (B/B0) of antiserum specific binding level (B) with peptide addition to the maximum binding level (B0), was determined using the following formula.
B/B0 (%)={(Y−N)/(Z−N)}×100
Accordingly, the amount of peptide that achieves 50% B/B0, more specifically, the amount of peptide that yields 50% inhibition of the maximum binding level, was used as an indicator of the peptide binding activity to the antiserum.
The amounts of peptide/tube used for performing the measurements were 0.5, 1, 2, 4, 8, 16, 32, 64, 128, 256, 512 and 1024 fmol for Peptide 1; 1, 2, 4, 8, 16, 32, 64, 128, 256, 512 and 1024 fmol for Peptide 2; 1, 3.3, 10, 33, 100, 333, 1000, 3300, 10,000, 33,000, 100,000, 333,000 and 1,000,000 fmol for Peptide 3; and 1,000, 10,000, 100,000 and 1,000,000 fmol for Peptide 8.

thymus = assay: Aequorin luminescence, thymus of apoaequorin-expressing mice; type: cell-based, mouse; settings: organ pieces, peptide final concentrations of 1 μmol/L and of 5 μmol/L
From the text: as §1, §2

bone = assay: Aequorin luminescence, bone of apoaequorin-expressing mice; type: cell-based, mouse; settings: organ pieces, peptide final concentrations of 1 μmol/L and of 5 μmol/L
From the text: (§3) Whether Peptides 1 to 5, 9 and 10 synthesized in Example 2 have the activity of increasing intracellular calcium ion concentration was investigated using the organs of transgenic mice introduced with the apoaequorin gene and systemically expressing apoaequorin (hereinafter referred to as apoaequorin-expressing mice). In apoaequorin-expressing mouse cells, light is emitted when apoaequorin binds to a calcium ion in the presence of the luminescent substrate coelenterazine and thus the intracellular calcium ion concentration can be monitored. Patent Document (WO02/010371) discloses the method for producing apoaequorin-expressing mice, method for evaluating biologically active substances that use biological samples derived from the mice, and experimental results of evaluating biologically active peptides using the mouse organs as shown below. […]
(§4) Apoaequorin-expressing mice were produced according to the method disclosed in Reference Example 4 of Patent Document (WO02/010371). […] After culturing, RPMI 1640 medium was added, and then Peptides 1 to 5, 9 and 10 dissolved in RPMI 1640 medium were added 25 seconds after the addition of RPMI 1640 until each peptide had final concentrations of 1 μmol/L and of 5 μmol/L, and the relative luminescence levels were measured every second immediately after the addition of RPMI 1640 medium by using a luminometer (AutoLumat LB953, manufactured by Berthold).

[2] = system: cardiac cells of the apoaequorin-expressing mice; assay: Intracellular calcium ion increase (aequorin luminescence), heart of apoaequorin-expressing mice; type: cell-based, mouse; settings: for intracellular calcium concentration in cardiac cells (RLU per second): 1 μmol/L of peptide, added at 25 seconds; for luminescence in the heart: organ pieces, peptide final concentrations of 1 μmol/L and of 5 μmol/L
Procedure: (§5) A heart or blood vessel is collected from transgenic mice systemically expressing apoaequorin (WO02/010371) produced by introducing an apoaequorin gene expression vector into fertilized eggs. The obtained heart or blood vessel is cut finely into pieces, suspended in a medium containing coelenterazine, and then incubated to incorporate coelenterazine into the cells to form aequorin (a complex of apoaequorin and coelenterazine). Since aequorin luminesces upon binding to intracellular calcium ions, the relative luminescence level in cells before and after addition of a medium containing the peptide or a pharmaceutically acceptable salt thereof is measured in a luminometer every second over time and is used as an indicator of intracellular calcium ion concentration. Increase in the relative luminescence level due to addition of the peptide or pharmaceutically acceptable salt thereof confirms that the peptide or pharmaceutically acceptable salt thereof has the activity to increase intracellular calcium ion concentration.
as §1, §2

[3] = Effect on rat blood pressure (anesthetized rats, bolus injection); type: in vivo; settings: 300 nmol in saline, bolus injection into external jugular vein, anesthetized male Wistar rats
Procedure: Catheters are inserted into the external jugular vein and internal carotid artery of an anesthetized animal such as rat or the like, and arterial pressure is measured continuously by connecting the catheter in the internal carotid artery to a blood pressure monitor. The peptide or pharmaceutically acceptable salt dissolved in physiological saline is administered through the external jugular vein.
Wistar rats (male, 10-weeks old, 250 to 300 g) were anesthetized by intraperitoneally administering Pentobarbital at 50 mg/kg body weight. Catheters were inserted into the external jugular vein and internal carotid artery of the anesthetized rats; the catheter in the internal carotid artery was connected to a blood pressure monitor; 300 nmol of Peptide 2 dissolved in saline (100 μL) was administered from the external jugular vein by bolus injection; and blood pressure was measured continuously.

[4] = system: vascular cells of the apoaequorin-expressing mice; assay: Intracellular calcium ion increase (aequorin luminescence), blood vessel of apoaequorin-expressing mice; type: cell-based, mouse; settings: for luminescence in the blood vessel: organ pieces, peptide final concentrations of 1 μmol/L and of 5 μmol/L
Procedure: as §5, §1, §2

kidney = assay: Aequorin luminescence, kidney of apoaequorin-expressing mice; type: cell-based, mouse; settings: organ pieces, peptide final concentrations of 1 μmol/L and of 5 μmol/L
From the text: as §3, §4

pituitary gland = assay: Aequorin luminescence, pituitary gland of apoaequorin-expressing mice; type: cell-based, mouse; settings: organ pieces, peptide final concentrations of 1 μmol/L and of 5 μmol/L
From the text: as §1, §2

adrenal gland = assay: Aequorin luminescence, adrenal gland of apoaequorin-expressing mice; type: cell-based, mouse; settings: organ pieces, peptide final concentrations of 1 μmol/L and of 5 μmol/L
From the text: as §3, §4

Substance	luminescence in the uterus (uterus)	luminescence in the spleen (spleen)	inhibition of antiserum binding to [125I]-labeled Peptide 1 [1]	luminescence in the thymus (thymus)	luminescence in the bone (bone)	intracellular calcium concentration in cardiac cells (RLU per second) [2]	luminescence in the heart [2]	change in average arterial blood pressure [3]	intracellular calcium concentration in vascular cells (RLU per second) ([4]; 5 μmol/L of peptide, added at 25 seconds)	luminescence in the blood vessel [4]	antiserum binding relative to the Peptide 1 binding ([1]; fraction of the Peptide 1 binding)	amount required to show the same degree of inhibition as Peptides 1 and 2 ([1]; relative to Peptides 1 and 2)	luminescence in the kidney (kidney)	luminescence in the pituitary gland (pituitary gland)	luminescence in the adrenal gland (adrenal gland)
Peptide 2: positions 554 to 577 of human VGF (SEQ ID NO: 3) with C-terminal amide (TLQPPSALRRRHYHHALPPSRHYP-NH2)	luminescence was observed	luminescence was observed	same degree of quantity-dependent inhibition	luminescence was observed	luminescence was observed	increase of intracellular calcium concentration	luminescence was observed	obvious increase in blood pressure; also recorded: increase of blood pressure	increase of intracellular calcium concentration	luminescence was observed					
Peptide 3: positions 554 to 583 of the amino acid sequence of human VGF, termini unmodified (H-TLQPPSALRRRHYHHALPPSRHYPGREAQA-OH)	luminescence was observed	luminescence was observed	dose-dependent inhibition of antiserum binding but the inhibition was weak	luminescence was observed	luminescence was observed	increase of intracellular calcium concentration	luminescence was observed			luminescence was observed	1/10000	approximately 10,000 folds	luminescence was observed	luminescence was observed	luminescence was observed
